The source made the active and inactive calls. No cut-off for these calls is given here.
Tests used:
[1] = Cytotoxicity against human MRC5 cells assessed as reduction in cell viability measured after 24 hrs by resazurin dye based fluorimetric assay
Plasmodium falciparum = assay: Antimalarial activity against Chloroquine-resistant Plasmodium falciparum K1 measured after 72 hrs by malstat/NBT dye based assay; format: functional, organism-based; details: K1, 72 h
[2] = test system: Mycobacterium tuberculosis; assay: Antitubercular activity against Mycobacterium tuberculosis H37Rv up to 50 uM measured after 7 days by resazurin dye based colometric microtiter assay; format: functional, organism-based
[3] = Selectivity index, ratio of CC50 for human MRC5 cells to IC50 for Chloroquine-resistant Plasmodium falciparum K1; format: toxicity; details: read-out: Ratio CC50/IC50
[4] = Half life in human at 500 mg, po; format: ADME; details: in vivo
[5] = Oral bioavailability in human; format: ADME, organism-based; details: in vivo

Compound | CC50 at 24 h [1] [µM] | IC50 (Plasmodium falciparum) [µM] | Activity [2] | selectivity ratio [3] | half-life [4] [h] | bioavailability [5] [%]
CCOC(=O)[C@H](CC(C)C)NP(=O)(CCCC(=O)N(C)OCc1ccc(-c2ccccc2)cc1)N[C@@H](CC(C)C)C(=O)OCC | 5.94 | 5.25 | inactive | 1.1 | – | –
CCOC(=O)[C@H](CC(C)C)NP(=O)(CCCC(=O)N(C)O)N[C@@H](CC(C)C)C(=O)OCC | > 64 | 4.83 | inactive | > 20 | – | –
CCOC(=O)[C@H](CC(C)C)NP(=O)(CCCC(=O)N(C)OCc1ccccc1)N[C@@H](CC(C)C)C(=O)OCC | > 64 | 4.22 | inactive | > 15 | – | –
CCOC(=O)[C@H](CC(C)C)NP(=O)(CCCC(=O)N(C)OCc1ccc(C(C)C)cc1)N[C@@H](CC(C)C)C(=O)OCC | 7.22 | 5.28 | inactive | 1.4 | – | –
CCOC(=O)[C@H](CC(C)C)NP(=O)(CCCC(=O)N(C)OCCCCc1ccccc1)N[C@@H](CC(C)C)C(=O)OCC | 7.23 | 6.72 | inactive | 1.1 | – | –
O=CN(O)CCCP(=O)([O-])O.[Na+] [FOSMIDOMYCIN SODIUM] | – | – | – | – | 1.87 | 20 to 40
CCOC(=O)[C@H](CC(C)C)NP(=O)(CCCC(=O)N(C)OCc1ccc2ccccc2c1)N[C@@H](CC(C)C)C(=O)OCC | 5.47 | 6.22 | inactive | 0.88 | – | –
CCOC(=O)[C@H](CC(C)C)NP(=O)(CCCC(=O)N(C)OCc1ccc(Cl)cc1)N[C@@H](CC(C)C)C(=O)OCC | 18.4 | 7.12 | inactive | 2.6 | – | –
CCOC(=O)[C@H](CC(C)C)NP(=O)(CCCC(=O)N(C)OCCCc1ccccc1)N[C@@H](CC(C)C)C(=O)OCC | 23.1 | 8.93 | inactive | 2.6 | – | –
